Test results published in PubChem BioAssay AID2060507 (Molecular Pharmacology Branch, DTP, NCI, 2025).

Tested on: 519858-162-T-J1-PDC complex spheroid viability
Assay: Anticancer human tumor 519858-162-T-J1-PDC patient-derived colon adenocarcinoma cell line growth inhibition [GQUAD]
Conditions: for IC50: curve of first compound; for viability, T/C: stronger effect = lower value
Text: DNA G-quadruplex Stabilizer Agents in Combinations in Complex Spheroids
A high-throughput screen of multi-cell type tumor spheroids was designed to identify active combinations of DNA G-quadruplex stabilizer agents and targeted small molecules. Complex spheroids include a stromal component modeled by human endothelial cells (HUVEC) and fibroblasts modeled by human mesenchymal stem cells (MSCs). The concentration ranges selected for each drug and investigational agent were based upon clinically achievable concentrations if the clinical Cmax of the agent was known.
Compounds. The drugs and investigational agents: pidnarulex (CX-5461; NSC782164), APTO-253 (NSC789042), BRACO-19 (NSC847499), peposertib (NSC802822), ceralasertib (NSC780249), elimusertib (NSC800525), camonsertib (NSC841442), AZD-1390 (NSC803789), olaparib (NSC753686), talazoparib (NSC767125), ART-558 (NSC835418), sotorasib (NSC818433), MRTX-1133 (NSC836407), SN-38 (NSC673596), topotecan (NSC609699), etoposide (NSC141540), doxorubicin (NSC123127), gemcitabine (NSC613327), 5-fluorouracil (NSC19893), paclitaxel (NSC125973), vemurafenib (NSC761431), panobinostat (NSC761190), R-306465 (JNJ-16241199; NSC773264), adavosertib (NSC754352), TP-3654 (NSC805149), carboplatin (NSC241240), KSQ-4279 (NSC840948), and staurosporine (NSC755774) were obtained from the National Cancer Institute (NCI) Developmental Therapeutics Program Chemical Repository (34). The FDA-approved anticancer drug set is available from the NCI Developmental Therapeutics Program. […] The stock solutions were prepared in dimethyl sulfoxide (DMSO, Sigma-Aldrich, St. Louis, MO, cat. D2650) at 800-fold the tested concentration and stored at -70 degrees C prior to their use. All drugs and investigational agents were tested over a range starting from a high concentration at or near the clinical Cmax and decreasing in half-log increments. If the clinical Cmax for an agent had not been determined, the highest concentration tested was 10 microM.
2.3 Cell Culture. All cells were maintained in an incubator at 37 degrees C and 5% CO2 with 95% humidity. The PDC lines were cultured according to standard operating procedures established by the NCI PDMR. All PDCs were thawed and cultured in Matrigel-coated flasks prepared with a working solution of 1X Ham's F-12 nutrient mix, without supplementation (Invitrogen, cat. 11765054), 100 U/mL penicillin-streptomycin (Invitrogen, cat. 15140122), and 2.5% Matrigel (Corning Inc., cat. 354248) for the first three passages. The 857933-349-R-J2-PDC line was cultured in 6C/Colon 1B media, which includes advanced DMEM/F-12 (Thermo Fisher Scientific, cat. 12634028), 10 mM HEPES (Thermo Fisher Scientific, cat. 15630080), 1X GlutaMAX supplement (Thermo Fisher Scientific, cat. 35050061), 0.1 mg/mL primocin (InvivoGen, cat. ant-pm-2), 10% defined fetal bovine serum, heat inactivated (HyClone Laboratories Inc., cat. SH30070.03HI), 50% L-WRN conditioned media (ATCC, cat. CRL-3276), 1.25 mM N-Acetyl-L-cysteine (Sigma-Aldrich, cat. A9165), 10 mM nicotinamide (Sigma-Aldrich, cat. N0636), 1X B-27 supplement (Thermo Fisher Scientific, cat. 17504044), 1X N-2 supplement (Thermo Fisher Scientific, cat. 17502048), 10 microM Y-27632 dihydrochloride (Tocris Bioscience, cat. 1254), and 50 ng/mL human EGF recombinant protein (Thermo Fisher Scientific, cat. PHG0311). The 485176-168-R4-J1-PDC line was cultured in Panc media, which includes all 6C/Colon 1B media components plus 100 ng/mL human FGF-10 (Thermo Fisher Scientific, cat. 100-26), 500 nM SB-431542 (Selleckchem, cat. S1067), and gastrin (Tocris, cat. 3006).
[…]

[1] = second compound 0.0316 µM, first compound 0.0316 µM
[2] = second compound 0.0316 µM, first compound 0.316 µM
[3] = second compound 0.1 µM, first compound 0.0316 µM
[4] = second compound 0.1 µM, first compound 0.316 µM
[5] = second compound 0.316 µM, first compound 0.0316 µM
[6] = second compound 0.316 µM, first compound 0.316 µM
[7] = second compound 1 µM, first compound 0.0316 µM
[8] = second compound 1 µM, first compound 0.316 µM
[9] = second compound 3.16 µM, first compound 0.0316 µM
[10] = second compound 3.16 µM, first compound 0.316 µM
[11] = second compound 10 µM, first compound 0.0316 µM
[12] = second compound 10 µM, first compound 0.316 µM
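Also: spheroids exposed to compounds for 7 days.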
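For viability, T/C in this document: 100% = DMSO vehicle control viability.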

Cc1cccc(N(C)C(=O)C2C(O)CCN2c2nc(C)cc(C(F)(F)F)c2C#N)c1 (centres undefined) + CN(C)c1ccc(Nc2c3ccc(NC(=O)CCN4CCCC4)cc3nc3cc(NC(=O)CCN4CCCC4)ccc23)cc1
IC50 (second compound 0.0316 µM): > 10 µM
IC50 (second compound 0.1 µM): > 10 µM
IC50 (second compound 0.316 µM): > 10 µM
IC50 (second compound 1 µM): > 10 µM
IC50 (second compound 3.16 µM): > 10 µM
IC50 (second compound 10 µM): > 10 µM
viability, T/C [1]: 86.1%
viability, T/C (second compound 0.0316 µM, first compound 0.1 µM): 126%
viability, T/C [2]: 96.4%
viability, T/C (second compound 0.0316 µM, first compound 1 µM): 95.2%
viability, T/C (second compound 0.0316 µM, first compound 3.16 µM): 91.1%
viability, T/C (second compound 0.0316 µM, first compound 10 µM): 92.9%
viability, T/C [3]: 105%
viability, T/C (second compound 0.1 µM, first compound 0.1 µM): 78.6%
viability, T/C [4]: 109%
viability, T/C (second compound 0.1 µM, first compound 1 µM): 77.2%
viability, T/C (second compound 0.1 µM, first compound 3.16 µM): 68.1%
viability, T/C (second compound 0.1 µM, first compound 10 µM): 83.8%
viability, T/C [5]: 111%
viability, T/C (second compound 0.316 µM, first compound 0.1 µM): 87.7%
viability, T/C [6]: 120%
viability, T/C (second compound 0.316 µM, first compound 1 µM): 61.4%
viability, T/C (second compound 0.316 µM, first compound 3.16 µM): 75%
viability, T/C (second compound 0.316 µM, first compound 10 µM): 85.5%
viability, T/C [7]: 102%
viability, T/C (second compound 1 µM, first compound 0.1 µM): 84.6%
viability, T/C [8]: 109%
viability, T/C (second compound 1 µM, first compound 1 µM): 73.1%
viability, T/C (second compound 1 µM, first compound 3.16 µM): 88.8%
viability, T/C (second compound 1 µM, first compound 10 µM): 73.3%
viability, T/C [9]: 63.9%
viability, T/C (second compound 3.16 µM, first compound 0.1 µM): 76.2%
viability, T/C [10]: 103%
viability, T/C (second compound 3.16 µM, first compound 1 µM): 91.8%
viability, T/C (second compound 3.16 µM, first compound 3.16 µM): 78.5%
viability, T/C (second compound 3.16 µM, first compound 10 µM): 62.3%
viability, T/C [11]: 71.2%
viability, T/C (second compound 10 µM, first compound 0.1 µM): 78.8%
viability, T/C [12]: 57.9%
viability, T/C (second compound 10 µM, first compound 1 µM): 90.7%
viability, T/C (second compound 10 µM, first compound 3.16 µM): 65.2%
viability, T/C (second compound 10 µM, first compound 10 µM): 88.3%

Cn1ncnc1[C@H]1c2n[nH]c(=O)c3cc(F)cc(c23)N[C@@H]1c1ccc(F)cc1 + CN(C)c1ccc(Nc2c3ccc(NC(=O)CCN4CCCC4)cc3nc3cc(NC(=O)CCN4CCCC4)ccc23)cc1
IC50 (second compound 0.0316 µM): > 0.316 µM
IC50 (second compound 0.1 µM): > 0.316 µM
IC50 (second compound 0.316 µM): > 0.316 µM
IC50 (second compound 1 µM): > 0.316 µM
IC50 (second compound 3.16 µM): > 0.316 µM
IC50 (second compound 10 µM): > 0.316 µM
viability, T/C (second compound 0.0316 µM, first compound 0.000999 µM): 74.5%
viability, T/C (second compound 0.0316 µM, first compound 0.00316 µM): 119%
viability, T/C (second compound 0.0316 µM, first compound 0.00999 µM): 146%
viability, T/C [1]: 66.9%
viability, T/C (second compound 0.0316 µM, first compound 0.0999 µM): 79.6%
viability, T/C [2]: 118%
viability, T/C (second compound 0.1 µM, first compound 0.000999 µM): 96%
viability, T/C (second compound 0.1 µM, first compound 0.00316 µM): 109%
viability, T/C (second compound 0.1 µM, first compound 0.00999 µM): 79%
viability, T/C [3]: 103%
viability, T/C (second compound 0.1 µM, first compound 0.0999 µM): 104%
viability, T/C [4]: 105%
viability, T/C (second compound 0.316 µM, first compound 0.000999 µM): 94.4%
viability, T/C (second compound 0.316 µM, first compound 0.00316 µM): 139%
viability, T/C (second compound 0.316 µM, first compound 0.00999 µM): 99.1%
viability, T/C [5]: 84.6%
viability, T/C (second compound 0.316 µM, first compound 0.0999 µM): 83%
viability, T/C [6]: 109%
viability, T/C (second compound 1 µM, first compound 0.000999 µM): 75.3%
viability, T/C (second compound 1 µM, first compound 0.00316 µM): 68.4%
viability, T/C (second compound 1 µM, first compound 0.00999 µM): 82.2%
viability, T/C [7]: 63.5%
viability, T/C (second compound 1 µM, first compound 0.0999 µM): 88.9%
viability, T/C [8]: 119%
viability, T/C (second compound 3.16 µM, first compound 0.000999 µM): 104%
viability, T/C (second compound 3.16 µM, first compound 0.00316 µM): 97.8%
viability, T/C (second compound 3.16 µM, first compound 0.00999 µM): 78.6%
viability, T/C [9]: 63.2%
viability, T/C (second compound 3.16 µM, first compound 0.0999 µM): 54.8%
viability, T/C [10]: 91.9%
viability, T/C (second compound 10 µM, first compound 0.000999 µM): 89.9%
viability, T/C (second compound 10 µM, first compound 0.00316 µM): 57.5%
viability, T/C (second compound 10 µM, first compound 0.00999 µM): 82.4%
viability, T/C [11]: 79.6%
viability, T/C (second compound 10 µM, first compound 0.0999 µM): 67.5%
viability, T/C [12]: 65.7%
